# Results taken from patent US20180071280A1, “MODULATORS OF CELL DEATH PROCESSES” (URIFER LTD., priority 2015, published 2018).
# Structures can show the parent of a compound that is named as a salt.
# Key:
# SW620 CC xenografts = SW620 CC xenografts in nude mice; format: in vivo
# Experimental: All animal experiments were performed according to the guidelines of the Institutional Animal Care and Use Committee of the Bar-Ilan University. Nude mice (Harlan, Israel) were transferred from ad libitum diet to a more strict diet 2 days before inoculation to lower blood glucose levels, and housed one per cage to ensure an even consumption of food. The diet was comprised of 3 g/mouse/day of standard chow, given at the same time every day. The food was consumed within an average time of 2 hours, consequently the mice were kept without food for the next 22 hours until the daily ration. The mice were kept on this diet throughout the experiment. Mice were inoculated with 1.5×10^6 SW620 CC cells and divided randomly into respective experimental groups. In brief, cells were harvested, counted under the microscope, concentrated by centrifugation (5 min at 500G) and re-suspended in Hank's balanced salt solution (Biological Industries, Israel). Before inoculation the cell suspension was mixed with Martial (BD biosciences, USA) in 1:1 ratio. Four days post-inoculation mice were randomized and placed in cages (n=4 per cage). […]
# Mice were sacrificed at day 22 of the xenograft experiments, as described above. […] The serum was analyzed immediately using the Cobas 6000-501 chemistry analyzer (Roche Diagnostics, USA) according to the manufacturer's protocols for each assay.
# Fer = Fer (Homo sapiens, UniProt P16591); assay: Fer autophosphorylation in RKO CC cells (IP/WB); format: cell-based; design: endogenous in cells; conditions: 24 h
# Sequence of Fer (P16591 whole entry): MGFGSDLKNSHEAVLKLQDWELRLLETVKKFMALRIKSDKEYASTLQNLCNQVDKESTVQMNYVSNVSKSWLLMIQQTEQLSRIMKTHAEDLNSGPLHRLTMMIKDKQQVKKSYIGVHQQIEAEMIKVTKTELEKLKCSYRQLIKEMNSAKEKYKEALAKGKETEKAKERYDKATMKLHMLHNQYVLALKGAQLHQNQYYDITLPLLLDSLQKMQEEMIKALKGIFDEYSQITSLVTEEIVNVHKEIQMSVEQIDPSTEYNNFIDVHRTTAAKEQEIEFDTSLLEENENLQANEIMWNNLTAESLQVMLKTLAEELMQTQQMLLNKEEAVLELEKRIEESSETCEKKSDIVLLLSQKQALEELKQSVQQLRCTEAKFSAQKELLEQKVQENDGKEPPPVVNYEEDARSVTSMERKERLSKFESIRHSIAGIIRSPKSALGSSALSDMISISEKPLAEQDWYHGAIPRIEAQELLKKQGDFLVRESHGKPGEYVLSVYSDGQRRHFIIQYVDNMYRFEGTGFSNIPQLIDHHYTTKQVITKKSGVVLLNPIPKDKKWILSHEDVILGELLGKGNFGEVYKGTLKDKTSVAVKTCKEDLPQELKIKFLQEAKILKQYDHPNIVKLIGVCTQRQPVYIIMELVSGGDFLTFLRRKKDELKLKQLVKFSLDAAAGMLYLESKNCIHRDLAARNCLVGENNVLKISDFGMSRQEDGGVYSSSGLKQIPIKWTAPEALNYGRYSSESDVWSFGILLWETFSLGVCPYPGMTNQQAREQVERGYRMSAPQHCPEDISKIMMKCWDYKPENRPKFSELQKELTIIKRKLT
# Experimental: WB analyses were carried out as previously described before. In brief, cells were lysed in RIPA buffer mixed with protease inhibitors and separated on SDS-PAGE gel, transferred to PVDF membrane treated with 5% skim milk to exclude non-specific background and incubated with a primary antibody over-night. The membrane was incubated for 1 h with a secondary antibody conjugated to Horseradish Peroxidase (HRP). The protein-antibody complex was visualized using the SuperSignal West Pico Chemiluminescent Substrate (Thermo scientific, USA).
# Protein lysates (1 mg) were prepared from tissues of adult mice according to previously described protocol, including incubation with Protein A Sepharose (GE Healthcare) to avoid nonspecific binding. Protein lysates were incubated with specific antibodies diluted 1:100 overnight at 4° C. Antigen-antibody complexes were precipitated with Protein A Sepharose, washed twice in PBS and eluted in Sample Buffer (2% SDS, 1% DTT 0.02% bromophenol blue 10% glycerol, 12.5 mM EDTA, 50 mM Tris-HCl pH 6.8) at room temperature for 10 min and at 100° C. for 8 min. Eluates were separated on SDS-PAGE and visualized by WB using specific antibodies.
# SW620 cells = assay: TUNEL assay in SW620 cells; format: cell-based, human; conditions: 12 h
# Experimental: Samples of 1×10^6 cells were inoculated into a 6 well plate containing a cover slip, and fixed for 30 min with 4% paraformaldehyde following adhesion. The cells were then subjected to TUNEL analysis according to manufacturer's instructions (Roche, USA).
# [1] = target: CAMK1 (Calcium/calmodulin-dependent protein kinase type 1) (Homo sapiens, UniProt Q14012); assay: Kinase panel assay, CAMK1; format: biochemical; conditions: above threshold
# Sequence of CAMK1 (Calcium/calmodulin-dependent protein kinase type 1) (Q14012 whole entry): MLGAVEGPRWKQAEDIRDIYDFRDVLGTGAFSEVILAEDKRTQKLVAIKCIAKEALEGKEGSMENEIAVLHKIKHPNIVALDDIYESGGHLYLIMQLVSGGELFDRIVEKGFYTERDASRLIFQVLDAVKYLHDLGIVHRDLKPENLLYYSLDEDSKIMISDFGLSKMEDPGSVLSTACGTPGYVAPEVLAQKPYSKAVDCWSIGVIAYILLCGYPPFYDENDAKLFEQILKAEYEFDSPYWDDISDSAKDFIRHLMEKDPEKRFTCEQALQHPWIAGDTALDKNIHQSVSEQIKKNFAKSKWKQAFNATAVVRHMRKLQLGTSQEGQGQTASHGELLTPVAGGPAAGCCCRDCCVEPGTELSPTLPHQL
# Experimental: Kinase panel assays were performed using the FRET-based Z′-LYTE, Lantha Screen and Adapta enzymatic kinase assay systems (Life Technologies, Carlsbad, Calif.), which were carried out using the SelectScreen Kinase Profiling Service (Life Technologies). The standard reaction contained 2 μM peptide substrate, ATP at the optimal assay concentration, 50 mM HEPES (pH 7.5), 0.01% Brij-35, 10 mM MgCl2, 1 mM EGTA, and the tested kinase. Each kinase was checked for its activity in duplicate data points (n=2) and was assayed following the detailed procedures outlined in the SelectScreen service. Percent inhibition or ATP displacement (For Lantha screen) represent a ratio of phosphorylated/ATP bound product formed in the presence of the compound compared with phosphorylated/ATP bound product formed in reactions containing 1% DMSO.
# Kinome technique was used for monitoring phosphorylation events and phosphorylation targets of 0260-Fer interaction, using peptide arrays for human targets and phosphorylation-specific antibodies. Construction of peptide arrays relied on information from phosphorylation databases. The following proteins were determined as significant above the threshold of 40% kinase activity inhibition or ATP displacement to the Kinase domain site.
# CC cells = assay: Glycolysis rate (secreted lactate) in CC cells; format: cell-based, human; conditions: 12 h
# Experimental: Cells were grown in MEM containing 1 gr/lit glucose or in DMEM with 4.5 gr/lit glucose. Secreted lactate levels were determined using Lactate Colorimetric Assay Kit II according to the manufacturer's protocol (Biovision, USA).
# [2] = test system: pancreatic cancer cells (PANC-1); assay: MultiTox-Fluor cytotoxicity assay in PANC-1 cells; format: cell-based, human; conditions: PANC-1, 24-72 h
# Experimental: Cell lines (HCT116, ht29, Rko, Hep3B, SW48, SW620, MDA-MB-231, PANC-1, su.86.86, Hfb) were obtained from the American Type Culture Collection (ATCC). Cell type authentication was carried out by microscope and DNA profiles using short tandem repeat analysis. Cells were grown in Minimum Essential Medium (MEM) containing 10% heat-inactivated Fetal Bovine Serum (FBS) or in Dulbecco's Modified Eagle's Medium (DMEM) containing 10% FBS, where specified, at 37° C. with 5% CO2. In general, the in-vitro experiments were carried out with 2. μM 0260 added into the growth medium. Dose response experiments included increasing 0260 concentrations. Cell death levels were determined using the MultiTox-Fluor Multiplex Cytotoxicity Assay (G9201, Promega, USA). In brief, 10,000 cells were seeded in black bottom 96 wells plate and were allowed to attach to the plate bottom for 16 h before the administration of various 0260 concentration in each well. Cell death levels were determined according to the manufacturer's protocol.
# Cells death level was determined using the MultiTox-Fluor Multiplex Cytotoxicity Assay (G9201, Promega, USA) according to the manufacturer's protocol.
# [3] = Toxicological and histopathological studies in mice; format: in vivo
# Experimental: All animal experiments were performed according to the guidelines of the Institutional Animal Care and Use Committee of the Bar-Ilan University. Nude mice (Harlan, Israel) were transferred from ad libitum diet to a more strict diet 2 days before inoculation to lower blood glucose levels, and housed one per cage to ensure an even consumption of food. The diet was comprised of 3 g/mouse/day of standard chow, given at the same time every day. The food was consumed within an average time of 2 hours, consequently the mice were kept without food for the next 22 hours until the daily ration. The mice were kept on this diet throughout the experiment. Mice were inoculated with 1.5×10^6 SW620 CC cells and divided randomly into respective experimental groups. In brief, cells were harvested, counted under the microscope, concentrated by centrifugation (5 min at 500G) and re-suspended in Hank's balanced salt solution (Biological Industries, Israel). Before inoculation the cell suspension was mixed with Martial (BD biosciences, USA) in 1:1 ratio. Four days post-inoculation mice were randomized and placed in cages (n=4 per cage). Mice were injected intra-peritonealy every 12 h for 22 days with 25 mg/kg or 50 mg/kg of the micellar and non-micellar 0260 formulations, and control mice—with empty micelles or vehicles. Mice were sacrificed at day 22, tissues from relevant organs were fixed in paraffin, sectioned (7 μm sections) and stained with Hematoxylin and Eosin stain (H&E stain) for future histopathological evaluation. Blood samples were drawn from sacrificed mice.
# Mice were sacrificed at day 22 of the xenograft experiments, as described above. Tissues from relevant organs and tumors were fixed in paraffin, sectioned (7 μm sections) and stained with Hematoxylin and Eosin stain (H&E stain) for histopathological evaluation as previously described. Blood samples were drawn by cardiac puncture. […] The serum was analyzed immediately using the Cobas 6000-501 chemistry analyzer (Roche Diagnostics, USA) according to the manufacturer's protocols for each assay.
structure (smiles),measurement,setting,value
"CC(C)c1ccc(-c2cn3nc(N4CCC(CN5CCN(C)CC5)CC4)sc3n2)cc1 [compound 0260, tartarate salt of 6-(4-isopropyl-phenyl)-2-{4-[(4-methyl-piperazin-1-yl)methyl]piperidin-1-yl}-imidazo [2,1-b][1,3,4]thiadiazole]",tumor histopathology,"SW620 CC xenografts; SW620 derived tumors dissected at day 22, center and periphery",comprised mostly of dead necrotic and un-vascularized tissue
same,decrease in average tumor volume,"SW620 CC xenografts; after 22 days of treatment, IP twice a day, restricted diet",10 fold
same,Fer autophosphorylation level in cells,Fer,inhibitory effect
same,DNA integrity (TUNEL),SW620 cells,did not reveal any effect
same,kinase activity inhibition or ATP displacement,[1],> 40%
same,additional acceleration of glycolytic rate,CC cells; high glucose concentration,30%
same,elevation in the glycolytic rate,"CC cells; high glucose concentration, total",65%
same,acceleration of glycolytic rate,CC cells; low glucose,35%
same,concentration efficient in inducing cell death,[2],≤ 1.5 µM
same,"toxic effects (blood markers of liver and kidney functions, blood electrolytes)",[3]; daily injection,did not cause any toxic effects or adverse side effects
same,"histopathology of heart, kidneys and liver","[3]; mouse, in vivo",failed to detect any abnormalities related to toxicity
same,effect on animal's weight,[3]; xenograft experiments,no significant effect
